Source: publication PMC7822030, “Hybrid Inhibitors of DNA Gyrase A and B: Design, Synthesis and Evaluation” (Pharmaceutics, 2020)
Where two headings read alike, the source gives them in different places.

Experiments:
E. coli DNA gyrase = target: T1, E. coli DNA gyrase (Escherichia coli, UniProt P0AES4+P0AES6); assay: E. coli DNA gyrase supercoiling assay; type: biochemical
T1 construct: purchased Inspiralis, Norwich, UK
Protocol: (§1) The assay for determination of the IC50 values was performed according to previously reported procedures.
(§2) Briefly, inhibitory activities were determined using supercoiling (for DNA gyrase) and relaxation (for topoisomerase IV) assay kits (Inspiralis, Norwich, UK) on streptavidin-coated 96-well microtiter plates from Thermo Scientific Pierce (Thermo Fisher Scientific, Waltham, MA, USA). First, the plates were rehydrated with Wash Buffer and the biotinylated oligonucleotide TFO1 was then immobilized. After washing off the unbound oligonucleotide with Wash Buffer, the enzyme assay was performed. Into each well was added 24 µL of mixture containing 6 µL of Assay Buffer (containing ATP), 0.75 µL of relaxed (for E. coli DNA gyrase supercoiling assay) or supercoiled (for E. coli topoisomerase IV relaxation assay) pNO1 plasmid and 17.25 µL of water. Additionally, 3 µL of a solution of the inhibitor in 10% DMSO containing 0.008% Tween 20 and 3 µL of enzyme (1.5 U) in Dilution Buffer were also added to the wells. […] The TF buffer was added to terminate the enzymatic reaction and after additional incubation for 30 min at room temperature, which allowed for triplex formation (biotin–oligonucleotide–plasmid), the unbound plasmid was washed off using TF buffer. Promega Diamond dye in T10 buffer was then added. […] Here, the compounds were diluted using 2-fold serial dilution steps of the given compound. GraphPad Prism 6.0 software was used to calculate the IC50 values, which were determined in at least two independent measurements, and their means are given as the final result. […] Dose-response curves can be found in Supplementary Materials.

A. baumannii ATCC 17978 = assay: MIC broth microdilution, A. baumannii; type: cell-based; details: Acinetobacter baumannii, ATCC17978, read-out: MIC A. baumannii ATCC #
From the text: (§3) E. coli MG1655 originated from the laboratory collection of Dr. Csaba Pál. […] E. coli K-12 BW25113 single-gene knockout mutant lines ΔdapF, ΔmrcB, ΔsurA, ΔacrB and ΔtolC originated form the Keio collection copy owned by the laboratory of Dr. Csaba Pál.
(§4) Cation-adjusted Mueller Hinton II broth (MHBII) was used for growth of the bacteria under standard laboratory conditions, for antimicrobial susceptibility tests, and for selection of resistant variants. To prepare the MHBII broth, 22 g MHBII powder (containing 3 g beef extract, 17.5 g acid hydrolysate of casein, 1.5 g starch; Becton, Dickinson and Co., Franklin Lakes, NJ, USA) was dissolved in 1 L water. MHBII agar was prepared by addition of 14 g agar (Bacto; Molar Chemicals, Halásztelek, Hungary) to 1 L broth.
(§5) Minimum inhibitory concentrations (MICs) were determined using a standard serial broth microdilution technique, according to the Clinical and Laboratory Standards Institute guidelines. […] For Enterococcus sp., the cells were plated in BHI agar plates, and BHI broth was used to determine the MICs. […] Following the dilutions, each well was seeded with 5 × 10^4 bacterial cells. Each measurement was performed in three parallel replicates, and to avoid possible edge effects in the microwell plates, the outside rows (A, H) were filled with sterile medium. Following the inoculations, the plates were covered with the lids and wrapped in polyethylene plastic bags, to minimize evaporation but to allow O2 transfer. […] After incubation, the OD600 of each well was measured using a microplate reader (Synergy 2; Biotek, Winooski, VT, USA).

E. coli MG1655 WT = assay: MIC, E. coli MG1655 wild-type with PAβN; type: cell-based, Escherichia coli; details: for MIC: Escherichia coli, MG1655, read-out: Minimum Inhibitory Concentration E. coli MG# WT, 50 µg/mL PAβN, molar conversion in parentheses; for Minimum Inhibitory Concentration E. coli MG1655 WT: in the presence of 50 µg/mL PAβN
From the text: as §3, §4
as §5, with “USA). […]” for “USA).”

E. coli topoisomerase IV = target: T2, E. coli topoisomerase IV (Escherichia coli, UniProt P0AFI2+P20083); assay: E. coli topoisomerase IV relaxation assay; type: biochemical; details: for Inhibition of topoisomerase IV (in words): relaxation assay
T2 construct: purchased Inspiralis, Norwich, UK
Protocol: as §1, §2

E. coli BW25113 ΔtolC = type: cell-based, Escherichia coli; details: for MIC change, ΔtolC mutant versus wild-type E. coli BW25113: improvement of MIC in impaired efflux pump mutant
From the text: as §3, §4, §5

E. coli BW25113 ΔsurA = type: cell-based, Escherichia coli
From the text: as §3, §4, §5

E. coli BW25113 ΔdapF = type: cell-based, Escherichia coli
From the text: as §3, §4, §5

E. coli BW25113 ΔmrcB = type: cell-based, Escherichia coli
From the text: as §3, §4, §5

E. coli BW25113 ΔacrB = type: cell-based, Escherichia coli
From the text: as §3, §4, §5

P. aeruginosa ATCC 27863 = assay: MIC broth microdilution, P. aeruginosa; type: cell-based; details: Pseudomonas aeruginosa
From the text: as §3, §4, §5

[1] = test system: E. cloacae spp. cloacae ATCC 13047; assay: MIC broth microdilution, E. cloacae; type: cell-based, Enterobacter cloacae; details: for MIC: Enterobacter cloacae, ATCC13047, read-out: MIC E. cloacae spp. cloacae ATCC #
[2] = test system: E. coli MG1655 GyrA S83L, D87N ParC S80I, E84G; assay: microbe, parasite or virus in culture; type: cell-based, Escherichia coli; details: for MIC: Escherichia coli, MG1655, read-out: Minimum Inhibitory Concentration E. coli MG# GyrA S83L, D87N ParC S80I, E84G; for Minimum Inhibitory Concentration E. coli MG1655 GyrA S83L, D87N ParC S80I, E84G: in the presence of 50 µg/mL PAβN
From the text: as §3, §4, §5
(§6) These mutated amino acids are the most common sites for target-based resistance in E. coli.

[3] = test system: E. coli MG1655 GyrB R136C; assay: microbe, parasite or virus in culture; type: cell-based, Escherichia coli; details: for MIC: Escherichia coli, MG1655, read-out: Minimum Inhibitory Concentration E. coli MG# GyrB R#C; for Minimum Inhibitory Concentration E. coli MG1655 GyrB R136C: in the presence of 50 µg/mL PAβN
From the text: as §3, §4, §5, §6

E. coli ATCC 25922 = assay: MIC broth microdilution, E. coli ATCC 25922; type: cell-based; details: Escherichia coli, ATCC25922, read-out: MIC E. coli ATCC #
From the text: as §3, §4, §5

E. coli BW25113 WT = assay: MIC, E. coli BW25113 wild-type; type: cell-based; details: Escherichia coli, BW25113, read-out: Minimum Inhibitory Concentration E. coli BW# WT
From the text: as §3, §4, §5

K. pneumoniae ATCC 10031 = assay: MIC broth microdilution, K. pneumoniae; type: cell-based; details: Klebsiella pneumoniae, ATCC10031, read-out: MIC K. pneumoniae ATCC #
From the text: as §3, §4, §5

[4] = molar conversion in parentheses
[5] = ATCC27863, 18 h, read-out: MIC P. aeruginosa ATCC #
[6] = ATCC27863, read-out: MIC P. aeruginosa ATCC #, molar conversion in parentheses, read-out: MIC P. aeruginosa ATCC 27863

| SMILES | IC50 (E. coli DNA gyrase) [nM] | MIC (A. baumannii ATCC 17978; broth microdilution, 18 h) [µg/mL] | MIC (A. baumannii ATCC 17978; [4]) [µM] | MIC (E. coli MG1655 WT) [µM] | Minimum Inhibitory Concentration E. coli MG1655 WT (E. coli MG1655 WT) [µg/mL] | IC50 (E. coli topoisomerase IV) [nM] | Inhibition of topoisomerase IV (in words) (E. coli topoisomerase IV) | Minimum Inhibitory Concentration E. coli BW25113 ΔtolC (E. coli BW25113 ΔtolC; efflux pump mutant) [µg/mL] | MIC change, ΔtolC mutant versus wild-type E. coli BW25113 (E. coli BW25113 ΔtolC) | Minimum Inhibitory Concentration E. coli BW25113 ΔtolC (E. coli BW25113 ΔtolC; [4]) | Minimum Inhibitory Concentration E. coli BW25113 ΔsurA (E. coli BW25113 ΔsurA; impaired cell-wall mutant) [µg/mL] | Minimum Inhibitory Concentration E. coli BW25113 ΔsurA (E. coli BW25113 ΔsurA; [4]) | MIC (P. aeruginosa ATCC 27863; [5]) [µg/mL] | MIC (P. aeruginosa ATCC 27863; [6]) [µM] | MIC ([1]; broth microdilution, 18 h) [µg/mL] | MIC [1, 4] [µM] | MIC (E. coli ATCC 25922; broth microdilution, 18 h) [µg/mL] | MIC (E. coli ATCC 25922; [4]) [µM] | MIC (K. pneumoniae ATCC 10031; broth microdilution, 18 h) [µg/mL] | MIC (K. pneumoniae ATCC 10031; [4]) [µM] | further results |
| --- | --- | --- | --- | --- | --- | --- | --- | --- | --- | --- | --- | --- | --- | --- | --- | --- | --- | --- | --- | --- | --- |
| Cc1[nH]c(C(=O)Nc2nc3ccc(C(=O)NCCC(=O)N4CCN(c5cc6c(cc5F)c(=O)c(C(=O)O)cn6C5CC5)CC4)cc3s2)c(Cl)c1Cl [Compound 7b, 1-Cyclopropyl-7-(4-(3-(2-(3,4-dichloro-5-methyl-1H-pyrrole-2-carboxamido)benzo[d]thiazole-6-carboxamido)propanoyl)piperazin-1-yl)-6-fluoro-4-oxo-1,4-dihydroquinoline-3-carboxylic acid] | 130 ± 10 | > 64 | > 84.8 | 1.32 | 1 | 3100 | low micromolar | 2 | above 32 fold | (2.65 µM) | >64 | (>84.8 µM) | > 64 | > 84.8 | > 64 | > 84.8 | > 64 | > 84.8 | 8 | 10.6 | Minimum Inhibitory Concentration E. coli BW25113 ΔdapF (E. coli BW25113 ΔdapF; impaired cell-wall mutant): >64 µg/mL; Minimum Inhibitory Concentration E. coli BW25113 ΔdapF (E. coli BW25113 ΔdapF; [4]): (>84.8 µM); Minimum Inhibitory Concentration E. coli BW25113 ΔmrcB (E. coli BW25113 ΔmrcB; impaired cell-wall mutant): >64 µg/mL; Minimum Inhibitory Concentration E. coli BW25113 ΔmrcB (E. coli BW25113 ΔmrcB; [4]): (>84.8 µM); Minimum Inhibitory Concentration E. coli BW25113 ΔacrB (E. coli BW25113 ΔacrB; efflux pump mutant): >64 µg/mL; Minimum Inhibitory Concentration E. coli BW25113 ΔacrB (E. coli BW25113 ΔacrB; [4]): (>84.8 µM); MIC [2]: 1.32 µM; Minimum Inhibitory Concentration E. coli MG1655 GyrA S83L, D87N ParC S80I, E84G [2]: 1 µg/mL; MIC [3]: 1.32 µM; Minimum Inhibitory Concentration E. coli MG1655 GyrB R136C [3]: 1 µg/mL; MIC (E. coli BW25113 WT; [4]): > 84.8 µM; MIC (E. coli BW25113 WT; wild-type): > 64 µg/mL |
| Cc1[nH]c(C(=O)Nc2nc3ccc(C(=O)O)cc3s2)c(Cl)c1Cl [Compound 1a, 2-(3,4-dichloro-5-methyl-1H-pyrrole-2-carboxamido)benzo[d]thiazole-6-carboxylic acid, reference compound] |  | 4 | 10.8 |  |  | 500 ± 280 |  |  |  |  |  |  | 8 | 21.6 | > 64 | > 173 | 4 | 10.8 | 1 | 2.7 | Antibacterial activity against E. cloacae (in words) [1]: inactive |
| Cc1[nH]c(C(=O)Nc2nc3c(OCc4ccccc4)cc(C(=O)O)cc3s2)c(Cl)c1Cl [Compound 1b, reference compound] |  | 2 | 4.2 |  |  |  |  |  |  |  |  |  | 2 | 4.2 | > 64 | > 134 | 16 | 33.6 | 4 | 8.4 | Antibacterial activity against E. cloacae (in words) [1]: inactive |
| Cc1[nH]c(C(=O)Nc2nc3c(OCc4ccccc4)cc(C(=O)NCCOCCN4CCN(c5cc6c(cc5F)c(=O)c(C(=O)O)cn6C5CC5)CC4)cc3s2)c(Cl)c1Cl.Cl [Compound 11b, 1-(2-(2-(4-(Benzyloxy)-2-(3,4-dichloro-5-methyl-1H-pyrrole-2-carboxamido)benzo[d]thiazole-6-carboxamido)ethoxy)ethyl)-4-(3-carboxy-1-cyclopropyl-6-fluoro-4-oxo-1,4-dihydroquinolin-7-yl)piperazin-1-ium chloride] | 14 ± 9 | 64 | 72.9 | 1.14 | 1 | 2500 ± 1100 | low micromolar | 1 | 8 fold | (1.14 µM) | 8 | (9.11 µM) | > 64 | > 72.9 | 16 | 18.2 | 4 | 4.56 | 1 | 1.14 | Minimum Inhibitory Concentration E. coli BW25113 ΔdapF (E. coli BW25113 ΔdapF; impaired cell-wall mutant): 8 µg/mL; Minimum Inhibitory Concentration E. coli BW25113 ΔdapF (E. coli BW25113 ΔdapF; [4]): (9.11 µM); Minimum Inhibitory Concentration E. coli BW25113 ΔmrcB (E. coli BW25113 ΔmrcB; impaired cell-wall mutant): 8 µg/mL; Minimum Inhibitory Concentration E. coli BW25113 ΔmrcB (E. coli BW25113 ΔmrcB; [4]): (9.11 µM); Minimum Inhibitory Concentration E. coli BW25113 ΔacrB (E. coli BW25113 ΔacrB; efflux pump mutant): 8 µg/mL; Minimum Inhibitory Concentration E. coli BW25113 ΔacrB (E. coli BW25113 ΔacrB; [4]): (9.11 µM); MIC [2]: 4.56 µM; Minimum Inhibitory Concentration E. coli MG1655 GyrA S83L, D87N ParC S80I, E84G [2]: 4 µg/mL; MIC [3]: 2.28 µM; Minimum Inhibitory Concentration E. coli MG1655 GyrB R136C [3]: 2 µg/mL; MIC (E. coli BW25113 WT; [4]): 9.11 µM; MIC (E. coli BW25113 WT; wild-type): 8 µg/mL |
